The AUC is the area under the concentration-time curve, a measure of exposure. By Cmax is commonly meant the peak of the concentration-time curve.

Results on one compound are retold here after patent publication EP4371563A1, “COMBINATIONS OF LAROTRECTINIB AND MODERATE CYP3A4 INDUCERS” (Bayer Consumer Care AG, priority 2022, dated 2024).

Series [1] in a line: In silico model: simulated larotrectinib plasma exposure after a single oral dose with and without itraconazole or rifampicin (model verification against observed data). Set-up: species or system human. As for the experimental part: The effect of different CYP3A4 inhibitors and inducers on the pharmacokinetics of larotrectinib was evaluated using an in silico model. The following drugs were included in the study: The model was correlated by comparison of simulated and observed plasma concentrations in both healthy subjects and cancer patients for midazolam, testosterone, and several of the tested drugs, including larotrectinib alone, larotrectinib + intraconazole, larotrectinib + rifampicin. The following virtual trials were conducted: 12 healthy subjects (50% female) aged 20 to 55 years receiving larotrectinib (100 mg BID) for 14 days in the absence of itraconazole and coadminstered with itraconazole (tablets in fed state; 200 mg QD). A comparison was made between mean simulated and observed plasma concentrations of larotrectinib following a single oral dose of 100 mg larotrectinib in the absence of and co-administered with itraconazole on the 5th day of 7 days of dosing (200 mg QD). Simulated Cmax and AUC and corresponding ratios for larotrectinib are shown below. […] A comparison was made between mean simulated and observed plasma concentrations of larotrectinib following a single oral dose of 100 mg larotrectinib in the absence of and co-administered with rifampicin on the 10th day of 11 days of dosing (600 mg QD). Simulated Cmax and AUC and corresponding ratios for larotrectinib are shown below.

Series [2] can be described thus: Observed larotrectinib plasma exposure after a single oral dose with and without itraconazole or rifampicin. The format is in vivo, human. The conditions noted are these: for AUC / Cmax: human, plasma, po. The method, then:
A comparison was made between mean simulated and observed plasma concentrations of larotrectinib following a single oral dose of 100 mg larotrectinib in the absence of and co-administered with itraconazole on the 5th day of 7 days of dosing (200 mg QD). Simulated Cmax and AUC and corresponding ratios for larotrectinib are shown below. […] A comparison was made between mean simulated and observed plasma concentrations of larotrectinib following a single oral dose of 100 mg larotrectinib in the absence of and co-administered with rifampicin on the 10th day of 11 days of dosing (600 mg QD). Simulated Cmax and AUC and corresponding ratios for larotrectinib are shown below.

A short description of series [3]: Observed larotrectinib exposure at 100 mg BID without CYP3A4 perpetrators. The conditions noted are these: in vivo, 100 mg BID larotrectinib in the absence of any CYP3A4 perpetrators. As for the experimental part: 100 mg BID larotrectinib was administered in the absence of any CYP3A4 perpetrators.
[4] abbreviates: Observed, plus rifampicin 600 mg QD / control, single oral dose 100 mg larotrectinib, interval in brackets.
Setting [5] is: coadministration of larotrectinib with rifampicin (600 mg QD).
[6] abbreviates: 100 mg, Observed, Control: single oral dose 100 mg larotrectinib in absence of itraconazole, healthy subjects.
Where [7] appears, read: 100 mg, Observed, Control: single oral dose 100 mg larotrectinib in absence of rifampicin.
Setting [8] is: Observed, single oral dose 100 mg larotrectinib plus itraconazole 200 mg QD (5th day of 7 days), healthy subjects.
[9] abbreviates: Observed, single oral dose 100 mg larotrectinib plus rifampicin 600 mg QD (10th day of 11 days).

As for `O=C(Nc1cnn2ccc(N3CCC[C@@H]3c3cc(F)ccc3F)nc12)N1CC[C@H](O)C1` [larotrectinib], the “P/O Ratio AUC” value in series [1] (predicted/observed of the AUC ratio plus itraconazole / control) is recorded as 1.04; in series [1] (predicted/observed of the AUC ratio plus rifampicin / control) it was 0.79. Moreover, the “P/O Ratio Cmax” value in series [1] (predicted/observed of the Cmax ratio plus itraconazole / control) is reported as 0.79; in series [1] (predicted/observed of the Cmax ratio plus rifampicin / control) it was 0.76. In series [2] (setting [4]), the “Ratio AUC” value is given as 0.19 (0.16, 0.24). Also, the “Ratio Cmax” value in series [2] (setting [4]) is 0.29 (0.23, 0.37). Moreover, the “observed reduction in exposure of larotrectinib, AUC” value in series [2] (setting [5]) worked out at 81%. Moreover, the “observed reduction in exposure of larotrectinib, Cmax” value in series [2] (setting [5]) worked out at 71%. Moreover, the AUC in series [2] (setting [6]) came out at 1280 ng·h/mL; in series [2] (setting [7]) it was 1340 ng·h/mL; in series [2] (setting [8]), 5520 ng·h/mL; in series [2] (setting [9]), 259 ng·h/mL; in series [3], 1590 ng·h/mL. Also, the maximum concentration (Cmax) was determined as 497 ng/mL in series [2] (setting [6]); 435 ng/mL in series [2] (setting [7]); 1400 ng/mL in series [2] (setting [8]); 133 ng/mL in series [2] (setting [9]); 624 ng/mL in series [3].
